target: T1, interaction between BRD2 and E3 ligase DCAF16 (Homo sapiens, UniProt P25440); test: Verification of BET-DCAF16 interaction, NanoBRET in HEK293 cells (Test Example 7); assay type: cell-based; conditions: test compound 10 μmol/L, 2 hours; HEK293 cells expressing Nluc-BRD2 and DCAF16-HaloTag; bortezomib; average of n=3
T1 construct: expressed in transfected cells; host or cells: HEK293
Experimental: HEK293 cells (ATCC® CRL-1573™) were cultured using a carbon dioxide gas incubator (95% air, 5% CO2) at 37° C. in DMEM, High Glucose, Pyruvate (DMEM: Code No. 11995073, Thermo Fisher Scientific) in which inactivated fetal bovine serum (FBS: Code No. 10099-148 (Thermo Fisher Scientific) was added in an amount to give a final concentration of 10 vol %. A Falcon® 100 mm×20 mm cell culture dish (Code No. 353003, CORNING) was used for cell culture.
A sequence encoding BRD2 was cleaved from pFN21AB3863 (Code No. FHC01342, Kazusa Genome Technologies) using Flexi Enzyme Blend (SgfI and PmeI) (Code No. R1852, Promega) and recombined with pFN31A Nluc CMV-Hygro Flexi® Vector (Code No. N131A, Promega) similarly cleaved using Flexi Enzyme Blend (SgfI and PmeI) to prepare a plasmid pFN31A_BRD2 expressing BRD2 with an Nluc tag added to the N-terminal. A sequence encoding DCAF16 having sgfI and pmeI restriction enzyme sites at both ends was amplified and purified by polymerase chain reaction using two primers, […] (SEQ ID NO: 4) and […] (SEQ ID NO: 5) from cDNA derived from HEK293 cells. Cleavage was performed using Flexi Enzyme Blend (SgfI and PmeI), and pFC27K HaloTag® CMV-neo Flexi® Vector (Code No. G8431, Promega) cleaved using Carboxy Flexi Enzyme Blend (Sgf I and EcoICR I) (Code No. R1901, Promega) was recombined to prepare a plasmid pFC27K_DCAF16 expressing DCAF16 with HaloTag added to the C-terminal. Sequencing was performed and confirmed that the sequence encoding DCAF16 matched NM_001345880.
Cultured HEK293 cells were washed with DPBS, no calcium, no magnesium (DPBS: Code No. 14190144, Thermo Fisher Scientific) and harvested using TrypLE™ Express Enzyme (1×), phenol red (TrypLE: Code No. 12605036, Thermo Fisher Scientific), and prepared to be 4.0×10^5 cells/mL in DMEM. A volume of 12 mL of the cell suspension was seeded in a Falcon® 100 mm×20 mm cell culture dish and cultured in a carbon dioxide gas incubator at 37° C. for 6 hours. For one dish, 12 μg of pFC27K_DCAF16, 0.12 μg of p FN31A_BRD2, 48 μL of FuGENE® HD Transfection Reagent (Code No. E2312, Promega) were added to 600 μL of Opti-MEM™ I Reduced Serum Medium, no phenol red (Opti-MEM: Code No. 11058021, Thermo Fisher Scientific) and mixed. The mixture was allowed to stand for 15 minutes and added to HEK293 cells. After 20 hours, the cells were washed with DPBS, no calcium, no magnesium, harvested from the dish using TrypLE, and then neutralized in DMEM. After centrifugation, the supernatant was discarded, and the cells were prepared to be 2.2×10^5 cells/mL using Opti-MEM containing 4% FBS. HaloTag® NanoBRET™ 618 Ligand contained in NanoBRET™ Nano-Glo® Detection System (Code No. N1662, Promega) and bortezomib as a proteasome inhibitor were added to be a 1000-fold dilution. In addition, a group was prepared to which DMSO was added instead of HaloTag® NanoBRET™ 618 Ligand. 90 μL of the cell suspension was seeded in CulturPlate-96 (Code No. 6005688, PerkinElmer), and allowed to stand in a carbon dioxide gas incubator at 37° C. for 30 minutes. A volume of 10 mmol/L of a solution of the test compound in DMSO was adjusted to be 100 μmol/L with Opti-MEM, 10 μL of the solution was added to each well, and then the mixture was allowed to stand in a carbon dioxide gas incubator at 37° C. for 2 hours. At this time, all the groups were prepared so that the final concentration of DMSO was 0.1 vol % including the group to which the test compound was not added. NanoBRET™ Nano-Glo® Substrate included in the NanoBRET™ Nano-Glo® Detection System was diluted 100-fold with Opti-MEM. After adding 25 μL of the dilution each and stirring for 30 seconds, measurement was performed with an Emission Filter of 460 nm and 620 nm using EnVision (PerkinElmer). The BRET ratio of 10 μmol/L for each test compound was calculated using the following formula. The experiment was performed by n=3 and the average value was calculated. […]

T1 sequence (P25440 whole entry): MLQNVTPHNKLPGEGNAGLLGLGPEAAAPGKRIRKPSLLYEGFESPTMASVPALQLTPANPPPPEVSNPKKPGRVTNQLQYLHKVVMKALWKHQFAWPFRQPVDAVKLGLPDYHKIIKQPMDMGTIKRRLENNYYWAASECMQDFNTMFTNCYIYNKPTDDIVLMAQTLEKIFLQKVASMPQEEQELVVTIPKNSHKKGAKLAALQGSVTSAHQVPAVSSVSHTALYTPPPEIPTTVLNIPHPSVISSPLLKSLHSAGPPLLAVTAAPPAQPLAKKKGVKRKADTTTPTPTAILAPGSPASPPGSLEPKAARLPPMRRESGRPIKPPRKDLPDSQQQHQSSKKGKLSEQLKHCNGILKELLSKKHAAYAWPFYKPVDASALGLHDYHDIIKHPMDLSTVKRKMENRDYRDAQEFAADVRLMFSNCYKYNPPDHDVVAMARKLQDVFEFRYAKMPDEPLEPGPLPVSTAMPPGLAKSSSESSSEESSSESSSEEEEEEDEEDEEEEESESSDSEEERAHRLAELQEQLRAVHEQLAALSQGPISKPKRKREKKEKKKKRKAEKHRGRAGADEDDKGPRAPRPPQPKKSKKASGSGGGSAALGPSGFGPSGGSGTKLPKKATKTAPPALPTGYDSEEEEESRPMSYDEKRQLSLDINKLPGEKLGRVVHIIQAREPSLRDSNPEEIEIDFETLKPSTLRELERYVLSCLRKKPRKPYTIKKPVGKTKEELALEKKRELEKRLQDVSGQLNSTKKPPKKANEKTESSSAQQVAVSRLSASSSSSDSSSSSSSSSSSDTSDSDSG
T1 sequence (Q9NXF7 whole entry partner): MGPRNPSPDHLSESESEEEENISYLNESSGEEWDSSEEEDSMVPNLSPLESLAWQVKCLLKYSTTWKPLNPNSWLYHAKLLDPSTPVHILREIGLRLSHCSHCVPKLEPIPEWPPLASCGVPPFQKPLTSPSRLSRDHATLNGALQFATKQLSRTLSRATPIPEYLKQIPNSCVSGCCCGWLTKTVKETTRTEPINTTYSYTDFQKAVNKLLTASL

Going from `CCC(=O)N1c2ccccc2[C@H](Nc2ccc(C(=O)NCC(=O)CNC(=O)c3ccc(N[C@@H]4C[C@H](C)N(C(=O)CC)c5ccccc54)cc3)cc2)C[C@@H]1C` [Compound 1l, N,N′-(2-Oxopropane-1,3-diyl)bis(4-{[(2S,4R)-2-methyl-1-propionyl-1,2,3,4-tetrahydroquinolin-4-yl]amino}benzamide)] to `CCC(=O)N1c2ccccc2[C@H](Nc2ccc(C(=O)NCc3cn(-c4ccc(N[C@@H]5C[C@H](C)N(C(=O)CC)c6ccccc65)cc4)nn3)cc2)C[C@@H]1C` [Compound 3a, 4-{[(2S,4R)-2-Methyl-1-propionyl-1,2,3,4-tetrahydroquinolin-4-yl]amino}-N-{[1-(4-{[(2S,4R)-2-methyl-1-propionyl-1,2,3,4-tetrahydroquinolin-4-yl]amino}phenyl)-1H-1,2,3-triazol-4-yl]methyl}benzamide], the “BRET Ratio” value rises from 8.03 to 8.51.

Compared with `CCC(=O)N1c2ccccc2[C@H](Nc2ccc(C(=O)NCCCNC(=O)c3ccc(C4=N[C@@H](CC(=O)OC(C)(C)C)c5nnc(C)n5-c5sc(C)c(C)c54)cc3)cc2)C[C@@H]1C` [Compound 1h, tert-Butyl 2-[(S)-2,3,9-trimethyl-4-(4-{[3-(4-{[(2S,4R)-2-methyl-1-propionyl-1,2,3,4-tetrahydroquinolin-4-yl]amino}benzamide)propyl]carbamoyl}phenyl)-6H-thieno[3,2-f][1,2,4]triazolo[4,3-a][1,4]diazepin-6-yl]acetate], `Cc1sc2c(c1C)C(c1ccc(C(=O)NCc3cn(-c4ccc(C5=N[C@@H](CC(=O)OC(C)(C)C)c6nnc(C)n6-c6sc(C)c(C)c65)cc4)nn3)cc1)=N[C@@H](CC(=O)OC(C)(C)C)c1nnc(C)n1-2` [Compound 3b, tert-Butyl 2-[(S)-4-(4-{4-[(4-{(S)-6-[2-(tert-butoxy)-2-oxoethyl]-2,3,9-trimethyl-6H-thieno[3,2-f][1,2,4]triazolo[4,3-a][1,4]diazepin-4-yl}benzamide)methyl]-1H-1,2,3-triazol-1-yl}phenyl)-2,3,9-trimethyl-6H-thieno[3,2-f][1,2,4]triazolo[4,3-a][1,4]diazepin-6-yl]acetate] is lower in “BRET Ratio” value: 6.84 for the first, 6.06 for the second.

Going from `CCC(=O)N1c2ccccc2[C@H](Nc2ccc(C(=O)N3CCn4c(-c5ccc(N[C@@H]6C[C@H](C)N(C(=O)CC)c7ccccc76)cc5)cnc4C3)cc2)C[C@@H]1C` [Compound 3e, 1-[(2S,4R)-2-Methyl-4-({4-[3-(4-{[(2S,4R)-2-methyl-1-propionyl-1,2,3,4-tetrahydroquinolin-4-yl]amino}phenyl)-5,6,7,8-tetrahydroimidazo[1,2-a]pyrazine-7-carbonyl]phenyl}amino)-3,4-dihydroquinolin-1(2H)-yl]propan-1-one] to `CCC(=O)N1c2ccccc2[C@H](Nc2ccc(NC(=O)CCCC(=O)Nc3ccc(N[C@@H]4C[C@H](C)N(C(=O)CC)c5ccccc54)cc3)cc2)C[C@@H]1C` [Compound 6k, N^1,N^5-Bis(4-(((2S,4R)-2-methyl-1-propionyl-1,2,3,4-tetrahydroquinolin-4-yl)amino)phenyl)glutaramide], the “BRET Ratio” value rises from 5.96 to 7.07.

Compared with `CCC(=O)N1c2ccccc2[C@H](Nc2ccc(NC(=O)N3CCN(C(=O)C4CCC(N[C@@H]5C[C@H](C)N(C(=O)CC)c6ccccc65)CC4)CC3)cc2)C[C@@H]1C` (stereo partly drawn) [Compound 7p, 4-((1R,4r)-4-(((2S,4R)-2-Methyl-1-propionyl-1,2,3,4-tetrahydroquinolin-4-yl)amino)cyclohexane-1-carbonyl)-N-(4-(((2S,4R)-2-methyl-1-propionyl-1,2,3,4-tetrahydroquinolin-4-yl)amino)phenyl)piperazine-1-carboxamide], `CCC(=O)N1c2ccccc2[C@H](Nc2ccc(NC(=O)CNC(=O)N[C@H]3CC[C@H](N[C@@H]4C[C@H](C)N(C(=O)CC)c5ccccc54)CC3)cc2)C[C@@H]1C` [Compound 8j, 2-(3-((1R,4R)-4-(((2S,4R)-2-Methyl-1-propionyl-1,2,3,4-tetrahydroquinolin-4-yl)amino)cyclohexyl)ureido)-N-(4-(((2S,4R)-2-methyl-1-propionyl-1,2,3,4-tetrahydroquinolin-4-yl)amino)phenyl)acetamide] is higher in “BRET Ratio” value: 6.8 for the first, 7.07 for the second.

Compared with `CCC(=O)N1c2ccccc2[C@H](Nc2ccc(NC(=O)CCCC(=O)NC3CCC(N[C@@H]4C[C@H](C)N(C(=O)CC)c5ccccc54)CC3)cc2)C[C@@H]1C` (stereo partly drawn) [Compound 7o, N^1-((1R,4r)-4-(((2S,4R)-2-Methyl-1-propionyl-1,2,3,4-tetrahydroquinolin-4-yl)amino)cyclohexyl)-N^5-(4-(((2S,4R)-2-methyl-1-propionyl-1,2,3,4-tetrahydroquinolin-4-yl)amino)phenyl)glutaramide], `CCC(=O)N1c2ccccc2[C@H](Nc2ccc(-n3cc(CCNC(=O)[C@H]4CC[C@H](N[C@@H]5C[C@H](C)N(C(=O)CC)c6ccccc65)CC4)nn3)cc2)C[C@@H]1C` [Compound 8a, (1R,4r)-4-(((2S,4R)-2-Methyl-1-propionyl-1,2,3,4-tetrahydroquinolin-4-yl)amino)-N-(2-(1-(4-(((2S,4R)-2-methyl-1-propionyl-1,2,3,4-tetrahydroquinolin-4-yl)amino)phenyl)-1H-1,2,3-triazol-4-yl)ethyl)cyclohexane-1-carboxamide] is higher in “BRET Ratio” value: 6.69 for the first, 7.27 for the second.

First: CCC(=O)N1c2ccccc2[C@H](Nc2ccc(NC(=O)CCCC(=O)NC3CCN(Cc4cc(O)cc(-c5c(C)noc5C)c4)CC3)cc2)C[C@@H]1C [Compound 12c, N^1-(1-(3-(3,5-Dimethylisoxazol-4-yl)-5-hydroxybenzyl)piperidin-4-yl)-N^5-(4-(((2S,4R)-2-methyl-1-propionyl-1,2,3,4-tetrahydroquinolin-4-yl)amino)phenyl)glutaramide]
Second: CCC(=O)N1c2ccccc2[C@H](Nc2ccc(NC(=O)CCCC(=O)Nc3ccc(Cn4c(C(=O)OCCN(C)C)cc5c4CCCC5=O)cc3)cc2)C[C@@H]1C [Compound 15a, 2-(Dimethylamino)ethyl 1-(4-(5-((4-(((2S,4R)-2-methyl-1-propionyl-1,2,3,4-tetrahydroquinolin-4-yl)amino)phenyl)amino)-5-oxopentanamide)benzyl)-4-oxo-4,5,6,7-tetrahydro-1H-indole-2-carboxylate]
The “BRET Ratio” value of the first is higher: 7.6 for the first, 5.88 for the second.

For `CCC(=O)N1c2ccccc2[C@H](Nc2ccc(-n3cc(CNC(=O)c4ccc(Cn5c(CC)cc6c5CCCC6=O)cc4)nn3)cc2)C[C@@H]1C` [Compound 15f, 4-((2-Ethyl-4-oxo-4,5,6,7-tetrahydro-1H-indol-1-yl)methyl)-N-((1-(4-(((2S,4R)-2-methyl-1-propionyl-1,2,3,4-tetrahydroquinolin-4-yl)amino)phenyl)-1H-1,2,3-triazol-4-yl)methyl)benzamide], the “BRET Ratio” value was 5.99.

From patent US20220378923A1, “BET DEGRADER” (KYOWA KIRIN CO., LTD., priority 2019, published 2022)
